Read-outs that look alike come from different tables or passages of the source.
System: PSMA+ PC-3 PiP and PSMA− PC-3 flu tumors
[1] = 1 h, co-injection 0.5 nmole YC-I-27
[2] = 2 hours (footnote a), co-injection 0.5 nmole YC-I-27
[3] = 24 h, co-injection 0.5 nmole YC-I-27
[4] = 4 h, co-injection 0.5 nmole YC-I-27

O=C(O)CC[C@H](NC(=O)N[C@@H](CCC(=O)NCCc1ccc([125I])cc1)C(=O)O)C(=O)O [[^125I]HS-549]
Biodistribution: Blood (1 h, No CI): 5.9 ± 1.0 % injected dose/gram
Biodistribution: Flu tumor (1 h, No CI): 2.2 ± 0.5 % injected dose/gram
Biodistribution: PiP tumor (1 h, No CI): 78 ± 19 % injected dose/gram
Biodistribution: kidneys (1 h, No CI): 106 ± 19 % injected dose/gram
Biodistribution: spleen (1 h, No CI): 6.8 ± 3.4 % injected dose/gram
Biodistribution: stomach (1 h, No CI): 0.9 ± 0.2 % injected dose/gram
Biodistribution: thyroid (1 h, No CI): 1.2 ± 0.4 % injected dose/gram
Biodistribution: Blood [1]: 2.6 ± 0.6 % injected dose/gram
Biodistribution: Flu tumor [1]: 1.0 ± 0.45 % injected dose/gram
Biodistribution: Lacrimal gland [1]: 1.1 ± 0.4 % injected dose/gram
Biodistribution: PiP tumor [1]: 31 ± 4.2 % injected dose/gram
Biodistribution: Salivary gland [1]: 1.0 ± 0.2 % injected dose/gram
Biodistribution: kidneys [1]: 12.1 ± 1.9 % injected dose/gram
Biodistribution: spleen [1]: 0.8 ± 0.2 % injected dose/gram
Biodistribution: stomach [1]: 0.8 ± 0.3 % injected dose/gram
Biodistribution: thyroid [1]: 5.6 ± 9.2 % injected dose/gram
Biodistribution: Blood [2]: 0.8 ± 0.1 % injected dose/gram
Biodistribution: Flu tumor [2]: 0.3 ± 0.15 % injected dose/gram
Biodistribution: Lacrimal gland [2]: 0.5 ± 0.3 % injected dose/gram
Biodistribution: PiP tumor [2]: 39 ± 4 % injected dose/gram
Biodistribution: Salivary gland [2]: 0.4 ± 0.2 % injected dose/gram
Biodistribution: kidneys [2]: 2.8 ± 0.8 % injected dose/gram
Biodistribution: spleen [2]: 0.4 ± 0.1 % injected dose/gram
Biodistribution: stomach [2]: 0.3 ± 0.1 % injected dose/gram
Biodistribution: thyroid [2]: 0.3 ± 0.1 % injected dose/gram
Biodistribution: Blood (4 h, No CI): 2.9 ± 0.3 % injected dose/gram
Biodistribution: Flu tumor (4 h, No CI): 1.5 ± 0.3 % injected dose/gram
Biodistribution: PiP tumor (4 h, No CI): 75 ± 13 % injected dose/gram
Biodistribution: kidneys (4 h, No CI): 97 ± 39 % injected dose/gram
Biodistribution: spleen (4 h, No CI): 2.7 ± 0.8 % injected dose/gram
Biodistribution: stomach (4 h, No CI): 0.5 ± 0.2 % injected dose/gram
Biodistribution: thyroid (4 h, No CI): 0.7 ± 0.3 % injected dose/gram
Biodistribution: Blood (21 hours (footnote b), No CI): 1.4 ± 0.4 % injected dose/gram
Biodistribution: Flu tumor (21 hours (footnote b), No CI): 0.4 ± 0.2 % injected dose/gram
Biodistribution: PiP tumor (21 hours (footnote b), No CI): 23 ± 2 % injected dose/gram
Biodistribution: kidneys (21 hours (footnote b), No CI): 3.1 ± 1.6 % injected dose/gram
Biodistribution: spleen (21 hours (footnote b), No CI): 0.3 ± 0.1 % injected dose/gram
Biodistribution: stomach (21 hours (footnote b), No CI): 0.1 ± 0.04 % injected dose/gram
Biodistribution: thyroid (21 hours (footnote b), No CI): 0.4 ± 0.05 % injected dose/gram
Biodistribution: Blood [3]: 0.6 ± 0.3 % injected dose/gram
Biodistribution: Flu tumor [3]: 0.2 ± 0.2 % injected dose/gram
Biodistribution: Lacrimal gland [3]: 0.2 ± 0.1 % injected dose/gram
Biodistribution: PiP tumor [3]: 35 ± 5 % injected dose/gram
Biodistribution: Salivary gland [3]: 0.2 ± 0.1 % injected dose/gram
Biodistribution: kidneys [3]: 0.7 ± 0.3 % injected dose/gram
Biodistribution: spleen [3]: 0.1 ± 0.07 % injected dose/gram
Biodistribution: stomach [3]: 0.1 ± 0.05 % injected dose/gram
Biodistribution: thyroid [3]: 0.5 ± 0.8 % injected dose/gram

O=C(O)CC[C@H](NC(=O)N[C@@H](CCCCN(Cc1ccc([125I])cc1)C(=O)CCCCNC(=O)CN1CCN(CC(=O)O)CCN(CC(=O)O)CCN(CC(=O)O)CC1)C(=O)O)C(=O)O [[^125I]VK-02-90]
Biodistribution: Blood (1 h, No CI): 1.1 ± 0.3 % injected dose/gram
Biodistribution: Flu tumor (1 h, No CI): 1.4 ± 0.6 % injected dose/gram
Biodistribution: Lacrimal gland (1 h, No CI): 17.4 ± 6.0 % injected dose/gram
Biodistribution: PiP tumor (1 h, No CI): 58 ± 14 % injected dose/gram
Biodistribution: Salivary gland (1 h, No CI): 5.1 ± 3.4 % injected dose/gram
Biodistribution: kidneys (1 h, No CI): 194 ± 25 % injected dose/gram
Biodistribution: spleen (1 h, No CI): 40 ± 16 % injected dose/gram
Biodistribution: stomach (1 h, No CI): 1.1 ± 0.3 % injected dose/gram
Biodistribution: Blood [1]: 0.45 ± 0.06 % injected dose/gram
Biodistribution: Flu tumor [1]: 0.37 ± 0.05 % injected dose/gram
Biodistribution: Lacrimal gland [1]: 0.75 ± 0.33 % injected dose/gram
Biodistribution: PiP tumor [1]: 35 ± 10 % injected dose/gram
Biodistribution: Salivary gland [1]: 0.46 ± 0.06 % injected dose/gram
Biodistribution: kidneys [1]: 10.0 ± 1.1 % injected dose/gram
Biodistribution: spleen [1]: 0.8 ± 0.14 % injected dose/gram
Biodistribution: stomach [1]: 0.33 ± 0.07 % injected dose/gram
Biodistribution: thyroid [1]: 0.5 ± 0.3 % injected dose/gram
Biodistribution: Blood (4 h, No CI): 0.2 ± 0.03 % injected dose/gram
Biodistribution: Flu tumor (4 h, No CI): 0.3 ± 0.1 % injected dose/gram
Biodistribution: Lacrimal gland (4 h, No CI): 1.9 ± 0.5 % injected dose/gram
Biodistribution: PiP tumor (4 h, No CI): 38 ± 13 % injected dose/gram
Biodistribution: Salivary gland (4 h, No CI): 0.7 ± 0.2 % injected dose/gram
Biodistribution: kidneys (4 h, No CI): 162 ± 3.5 % injected dose/gram
Biodistribution: spleen (4 h, No CI): 4.7 ± 1.2 % injected dose/gram
Biodistribution: stomach (4 h, No CI): 0.4 ± 0.2 % injected dose/gram
Biodistribution: Blood [4]: 0.02 ± 0.004 % injected dose/gram
Biodistribution: Flu tumor [4]: 0.7 ± 0.01 % injected dose/gram
Biodistribution: Lacrimal gland [4]: 0.14 ± 0.08 % injected dose/gram
Biodistribution: PiP tumor [4]: 35 ± 5.0 % injected dose/gram
Biodistribution: Salivary gland [4]: 0.08 ± 0.04 % injected dose/gram
Biodistribution: kidneys [4]: 2.2 ± 0.3 % injected dose/gram
Biodistribution: spleen [4]: 0.2 ± 0.1 % injected dose/gram
Biodistribution: stomach [4]: 0.2 ± 0.07 % injected dose/gram
Biodistribution: thyroid [4]: 0.14 ± 0.1 % injected dose/gram
Biodistribution: Blood (24 h, No CI): 0.02 ± 0.01 % injected dose/gram
Biodistribution: Flu tumor (24 h, No CI): 0.04 ± 0.02 % injected dose/gram
Biodistribution: Lacrimal gland (24 h, No CI): 0.5 ± 0.2 % injected dose/gram
Biodistribution: PiP tumor (24 h, No CI): 51 ± 7 % injected dose/gram
Biodistribution: Salivary gland (24 h, No CI): 0.3 ± 0.3 % injected dose/gram
Biodistribution: kidneys (24 h, No CI): 31 ± 14 % injected dose/gram
Biodistribution: spleen (24 h, No CI): 0.7 ± 0.4 % injected dose/gram
Biodistribution: stomach (24 h, No CI): 0.05 ± 0.03 % injected dose/gram
Biodistribution: Blood [3]: 0.001 ± 0.001 % injected dose/gram
Biodistribution: Flu tumor [3]: 0.02 ± 0.01 % injected dose/gram
Biodistribution: Lacrimal gland [3]: 0.02 ± 0.04 % injected dose/gram
Biodistribution: PiP tumor [3]: 33 ± 6 % injected dose/gram
Biodistribution: Salivary gland [3]: 0.02 ± 0.01 % injected dose/gram
Biodistribution: kidneys [3]: 0.3 ± 0.03 % injected dose/gram
Biodistribution: spleen [3]: 0.05 ± 0.04 % injected dose/gram
Biodistribution: stomach [3]: 0.06 ± 0.02 % injected dose/gram
Biodistribution: thyroid [3]: 0.04 ± 0.08 % injected dose/gram
PSMA+ tumor uptake (in words) (Tables 1, 2, and 3): high PSMA+ tumor uptake
kidney uptake (in words) (Tables 1, 2, and 3): high initial kidney uptake which clears over time

Source: patent US20210338846A1, “COMPETITIVE PROSTATE-SPECIFIC MEMBRANE ANTIGEN (PSMA) BINDING AGENTS FOR REDUCTION OF NON-TARGET ORGAN UPTAKE OF RADIOLABELED PSMA INHIBITORS FOR PSMA POSITIVE TUMOR IMAGING AND RADIOPHARMACEUTICAL THERAPY” (The Johns Hopkins University, priority 2018, published 2021)
